Assay results taken from ChEMBL document CHEMBL1157539, “Thousands of chemical starting points for antimalarial lead identification” (Nature, 2010).
Counter-ions that a name gives are not always drawn.

System: Plasmodium falciparum
Test: GSK_TCMDC: Inhibition of Plasmodium falciparum 3D7 in whole erythrocytes, using parasite LDH activity as an index of growth.
Assay type: functional, organism-based

| Compound | XC50 (Plasmodium falciparum, 3D7) | XC50 |
| --- | --- | --- |
| FC(F)(F)c1cccc(N2CCC(CN3CCC(c4c[nH]c5ccccc45)CC3)CC2)n1 | 980 nM |  |
| FC(F)(F)c1ccc2[nH]c(-c3ccc(-c4ccc(CNCCN5CCNCC5)cc4)cc3)nc2c1 | 1120 nM |  |
| CC(=O)Nc1ccc(OCCCCN(Cc2ccccc2OC(F)(F)F)c2ccc(C(F)(F)F)c(C#N)c2)c(Cl)c1 | 529 nM |  |
| CC(C)c1cc(N)c2cc(NC(=O)COCC(=O)Nc3ccc4nc(C(C)C)cc(N)c4c3)ccc2n1 | 216 nM |  |
| O=C(Nc1ccc(Cl)cc1F)N[C@H]1CCN(CCCCCNC(=O)C2CC2c2ccc(Cl)c(Cl)c2)C1 (stereo partly specified) | 1090 nM |  |
| CC(C)NCc1ccc(-c2ccc(-c3nc4cc(C(F)(F)F)ccc4[nH]3)cc2)cc1 | 266 nM |  |
| O=S(=O)(Nc1cc2c(cc1OCc1ccccc1)CCN(C1CCC1)CC2)c1ccc(-c2ccc(Cl)cc2)cc1 | 1140 nM |  |
| CCOC(=O)c1ccc(NC(=O)c2ccccc2C(=O)O)cc1 | 922 nM |  |
| Cc1nc(-c2ccc(C(F)(F)F)cn2)sc1C(=O)N1CCc2cc3nccc(N4CCN5CCC[C@H]5C4)c3cc21 | 784 nM |  |
| Nc1ncc(-c2ccc(F)cc2)c2ccc(-c3cccc(F)c3)cc12 | 227 nM |  |
| CN(C)CC1CCCN1Cc1ccccc1-c1cnn(C)c(=O)c1Oc1cccc(C#N)c1 (stereo unspecified) | 1340 nM |  |
| COC(=O)c1cccc(CNCc2cccc(-c3ccc(-c4nc5ccccc5[nH]4)cc3)c2)c1 | 354 nM |  |
| CCc1c(C)nc(-n2nc(C)cc2NC(=O)c2cccc3ccccc23)[nH]c1=O | 682 nM |  |
| O=C(Nc1cccc(-c2cccc(-c3nc4ccccc4[nH]3)c2)c1)Nc1ccc(Cl)c(Cl)c1 | 131 nM |  |
| CCN(CCCN1CCCCC1)c1cc(C)nc(Nc2ccc(Cl)c(C(F)(F)F)c2)n1 | 173 nM |  |
| Cc1ccc(O)cc1Nc1ccnc2ccc(C(C)(C)C)cc12 | 1250 nM |  |
| COc1cccc(-c2ccc3ccnc(N)c3c2)c1 | 408 nM |  |
| CCNc1cc(C(=O)N[C@@H](Cc2ccccc2)[C@H](O)CNC(C)(C)Cc2cccc(OC)c2)cc(N2CCCC2=O)c1 | 707 nM |  |
| Cc1cccc2nc(-c3cccc(-c4cccc(C(=O)NCc5nccn5C)c4)c3)[nH]c12 | 528 nM |  |
| CC(C)(C)c1ccc(S(=O)(=O)Nc2ccccc2Cn2nc(N3CCNCC3)ccc2=O)cc1 | 846 nM |  |
| COc1cc(N(C)Cc2cnc3nc(N)nc(N)c3n2)cc(OC)c1OC | 435 nM |  |
| Cc1ccc(O)cc1Nc1ccnc2cc(-c3cccc(CNCCS(C)(=O)=O)c3)ccc12 | 836 nM |  |
| COc1cc(Cc2cnc(N)nc2N)cc(OCC(C)(C)C(=O)O)c1OC | 1110 nM |  |
| O=C(NC1CCN(c2ccnc3cc(Cl)ccc23)C1)c1cccc(F)c1 (stereo unspecified) | 179 nM |  |

| Compound | XC50 (Plasmodium falciparum, 3D7) | XC50 |
| --- | --- | --- |
| CN(C)CCOc1ccc(N2CCN(CCCCNC(=O)c3ccc(NC(=O)c4ccc(Cl)cc4)cc3)CC2)cc1 | 826 nM |  |
| CCCNc1ccc(-c2cc(C(N)=O)c3[nH]cc(C4CCN(S(=O)(=O)CC)CC4)c3c2)cn1 | 817 nM |  |
| O=C(Nc1cc(C(F)(F)F)cc(C(F)(F)F)c1)NC1CCC(CN2CCC(c3c[nH]c4ccccc34)CC2)CC1 (stereo unspecified) | 810 nM | 461 nM |
| CCN(CCCN1CCCCC1)c1cc(C)nc(Nc2cccc(C(F)(F)F)c2C)n1 | 609 nM |  |
| CCCc1c(C(=O)NC2CCC(CN3CCC(c4c[nH]c5ccccc45)CC3)CC2)cnn1-c1ccc(Cl)cc1 (stereo unspecified) | 763 nM |  |
| Fc1cc(Cl)ccc1Nc1ccnc(Nc2ccc3cn[nH]c3c2)n1 | 737 nM |  |
| CC1c2cccc(O)c2CCN1CCc1ccc(Cl)c(Cl)c1 (stereo unspecified) | 138 nM |  |
| O=C(CSc1nc2ccccc2c(=O)n1CC1CCCO1)Nc1cc(C(F)(F)F)ccc1Cl (stereo unspecified) | 229 nM |  |
| C=C[C@H]1CN2CC[C@H]1C[C@H]2[C@H](O)c1ccnc2ccc(OC)cc12 [QUININE HYDROCHLORIDE] | 145 nM | 95.2 nM |
| Oc1ccc(Cl)cc1CN1CCCC(COC(c2ccc(F)cc2)c2ccc(F)cc2)C1 (stereo unspecified) | 677 nM |  |
| Cc1cc(Oc2ccc(-n3ccnc3)cc2)nc(N2CCN(CCCN3CCCC3)CC2)n1 | 928 nM |  |
| Cc1ccc2cc(C3NC(=O)c4ccccc4N3)c(Cl)nc2c1 (stereo unspecified) | 945 nM |  |
| CC(C)CNC(=S)N1CCCN(c2nc3ccc(Cl)cc3s2)CC1 | 960 nM |  |
| COc1ccc2nccc([C@@H](O)CN3CCC(NC(=O)[C@@H]4Cc5ccccc5CN4C(=O)OC(C)(C)C)CC3)c2c1 | 892 nM |  |
| O=C(N[C@H]1CCN(Cc2ccc(OCCN3CCNCC3)c(Br)c2)C1)c1ccc(Cl)c(Cl)c1 | 484 nM |  |
| CC(CN(C)C)C(=O)Nc1cccc(-c2ccc(-c3nc4ccccc4[nH]3)s2)c1 (stereo unspecified) | 743 nM |  |
| Cc1nc(N)nc(N)c1-c1ccc(Br)c([N+](=O)[O-])c1 | 201 nM |  |
| Nc1nc(N)c2cc3ccc(OCc4ccccc4)cc3nc2n1 | 320 nM |  |
| CC(=O)Nc1ccc(C(=O)Nc2ccc(-c3cccc(-c4nc5ccccc5[nH]4)c3)cc2)cn1 | 238 nM |  |
| C[C@@H](CC1CCCCC1)OC(=O)N(C)[C@@H]1CCN(C#N)C1 | 621 nM |  |
| CN1CCN(CCCNCc2cccc(-c3ccc(CNCCc4ccccc4)cc3)c2)CC1 | 781 nM |  |
| CCOC(=O)c1ccc(N(CCCN(CCCN(c2ccc(C(=O)OCC)cc2)S(=O)(=O)c2ccc(C)cc2)CCc2ccc(O)cc2)S(=O)(=O)c2ccc(C)cc2)cc1 | 1050 nM |  |
| O=C(NC1CCCCN(Cc2ccccc2O)C1)c1ccc(-c2ccccc2)cc1 (stereo unspecified) | 759 nM |  |
| O=C(/C=C/c1ccc(Cl)c(Cl)c1)NCCCCCN1CCC(CCCNC(=O)Nc2ccc(C(F)(F)F)cc2)CC1 | 872 nM |  |

| Compound | XC50 (Plasmodium falciparum, 3D7) | XC50 |
| --- | --- | --- |
| Cc1cc(N)c2cc(NC(=O)/C=C/c3ccccc3Cl)ccc2n1 | 405 nM |  |
| c1ccc(CNCc2cccc(-c3csc(-c4nc5ccccc5[nH]4)c3)c2)cc1 | 456 nM |  |
| CCOC(=O)C1=C(C)N=c2sc(=Cc3cc(Cl)ccc3O)c(=O)n2C1c1ccc2c(c1)OCO2 (stereo unspecified) | 712 nM |  |
| CC(C)CNCc1cccc(-c2cccc(CN(CCCN3CCN(C)CC3)C(=O)Nc3ccccc3)c2)c1 | 1150 nM |  |
| COc1ccc(N2C(N)=NC(N)=NC2(C)C)cc1OC | 311 nM |  |
| CC(C)CCN1CCCN(Cc2ccc(C(=O)NCc3ccc(Cl)cc3)cc2)CC1 | 1010 nM |  |
| COc1ccc(Nc2nccc(N3CCC(NC(=O)Nc4ccc5c(c4)OCO5)C3)n2)cc1 (stereo unspecified) | 599 nM |  |
| COc1ccc(C(C(=O)NC2CCN(C[C@H](O)c3ccnc4ccc(OC)cc34)CC2)N2CCc3ccccc3C2)cc1 (stereo partly specified) | 697 nM |  |
| C=C1C[C@@H](n2cnc3c(NC(=O)c4ccccc4)ncnc32)[C@@H](F)[C@@H]1OC(c1ccccc1)(c1ccccc1)c1ccccc1 | 145 nM |  |
| CCOC(=O)c1ccc(NC(=O)Nc2ccc(-c3ccc(-c4nc5cccc(C)c5[nH]4)s3)cc2)cc1 | 199 nM |  |
| O=C(NCCc1ccccc1)N(Cc1cccc(-c2ccc(CNC3CCCC3)cc2)c1)C1CCN(Cc2ccccc2)CC1 | 404 nM |  |
| Cc1ccc(NC(=O)c2ccc(CN3CCCN(CC4CCCCC4)CC3)cc2)cc1F | 290 nM |  |
| COc1ccc2c(NN=Cc3cccc(C)n3)ccnc2c1 | 761 nM |  |
| CCCC(CNCc1cccc(SC(F)(F)F)c1)CNc1cc(=O)c2ccccc2[nH]1 (stereo unspecified) | 715 nM |  |
| CN1CCN(c2ccnc3ccc(NC(=O)Nc4cccc5c(Br)cccc45)cc23)CC1 | 153 nM |  |
| O=C(/C=C/c1ccc(Cl)c(Cl)c1)NCCC(CN1CCC(c2c[nH]c3ccccc23)CC1)c1ccccc1 (stereo unspecified) | 570 nM |  |
| Cc1cc(N[C@@H](CC(C)C)C(=O)Nc2ccccc2)nc(NCCc2ccccc2)n1 | 888 nM |  |
| NC(=O)c1sc(-n2cnc3ccccc32)cc1OCc1ccccc1[N+](=O)[O-] | 702 nM |  |
| CS(=O)(=O)c1ccc(CCNCc2ccc(-c3ccc(CN(C(=O)C4CC(=O)c5ccccc54)C4CCN(Cc5ccccc5)CC4)cc3)nc2)cc1 (stereo unspecified) | 592 nM |  |
| CC(=O)Nc1cccc(C(=O)Nc2cccc(-c3cccc(-c4nc5ccccc5[nH]4)c3)c2)c1 | 594 nM |  |
| CCCOc1ccc(N2C(N)=NC(N)=NC2(C)C)cc1 | 487 nM |  |
| Cc1cnc(Nc2cccc(CCN3CCOCC3)c2)nc1NC(C)C | 738 nM |  |
| CN(Cc1ccc(-c2ccc(C(F)(F)F)cc2)cc1)C(=O)Cn1c(CCc2cccc(F)c2F)nc(=O)c2ccc(N3CCN(CCN4CCCCC4)CC3)nc21 | 764 nM |  |
| COC(=O)c1cccc(CN(CCC(O)(C(F)(F)F)C(F)(F)F)C(=O)CC2CCCC2)c1 | 909 nM |  |

| Compound | XC50 (Plasmodium falciparum, 3D7) | XC50 |
| --- | --- | --- |
| Cc1ccccc1CNc1noc(-c2c(F)cccc2Cl)n1 | 722 nM |  |
| O=C(c1cccc(-c2cccc(-c3nc4cc(C(F)(F)F)ccc4[nH]3)c2)c1)N1CCCCC1CN1CCC(O)C1 (stereo unspecified) | 279 nM |  |
| O=C(NCc1ccc(Cl)cc1)c1ccc(CN2CCCN(CC3CCCCC3)CC2)cc1 | 1700 nM |  |
| O=C(Nc1ccc(Cl)cc1)NC1CCN(CCCCCNC(=O)C2CC2c2ccc(Cl)c(Cl)c2)CC1 (stereo unspecified) | 576 nM |  |
| CC(C)[C@@H](NC(=O)NC1CCC(CCN2C3CCC2CC(OC(=O)C(CO)c2ccccc2)C3)CC1)C(O)(c1ccccc1)c1ccccc1 (stereo partly specified) | 812 nM |  |
| Cc1ccc(-n2nc3ccc(NC(=O)c4ccc([N+](=O)[O-])o4)cc3n2)cc1C | 397 nM |  |
| CS(=O)(=O)CCNCc1ccc(-c2ccc3c(Nc4ccc(Oc5ccccn5)cc4)ccnc3c2)o1 | 715 nM |  |
| CC(C)CCNC(=N)Nc1ccc(OCCCCCOc2ccc(NC(=N)NCCC(C)C)cc2)cc1 | 1080 nM |  |
| Cc1ccc(O)cc1Nc1ccnc2cc(-c3csc(CNCCN4CCOCC4)n3)ccc12 | 884 nM |  |
| Cc1nc(C)c(-c2ccc(Oc3ccc(Cl)cc3)cc2)c(O)c1I | 957 nM |  |
| O=C(NC(Nc1ccc([N+](=O)[O-])cc1)C(Cl)(Cl)Cl)c1cccc(Cl)c1 (stereo unspecified) | 863 nM |  |
| CCOC(=O)NC1=NC(C)(C)N(OCc2ccc(Cl)c(Cl)c2)C(NC(=O)OCC)=N1 | 278 nM |  |
| COc1cc(Cc2cnc(N)nc2N)cc(OCCCCC2SC(=O)NC2=O)c1OC (stereo unspecified) | 30.7 nM |  |
| c1ccc(CC2=NCCN2)cc1 [TOLAZOLINE HYDROCHLORIDE] | 188 nM |  |
| CC1CN(Cc2ccccc2)CCN1c1ccc(NC(=O)c2cccs2)cc1 (stereo unspecified) | 276 nM |  |
| CCC1(CC)NC(N)=NC(=N)N1OCc1ccc(Cl)c(Cl)c1 | 58.5 nM |  |
| Cc1ccc2[nH]ncc2c1N(CC1CCCCC1)c1ccnc(Nc2ccc(OCC(O)CN3CC=CCC3)cc2)n1 (stereo unspecified) | 622 nM |  |
| CC(C)CN1CCC(COc2ccc3ncn(-c4cc(O[C@H](C)c5ccccc5C(F)(F)F)c(C(N)=O)s4)c3c2)CC1 | 618 nM |  |
| COc1cc(C(=O)Nc2ccc3nc(N4CCN(C)CC4)cc(C)c3c2)cc(OC)c1OC | 289 nM |  |
| Cc1c(C(=O)NC2CCC(CN3CCC(c4c[nH]c5ccccc45)CC3)CC2)cnn1-c1c(Cl)cc(Cl)cc1Cl (stereo unspecified) | 711 nM |  |
| O=C(Nc1cccc(-c2nc3ccccc3s2)c1)c1ccccc1[N+](=O)[O-] | 767 nM |  |
| COc1cc(Cc2cnc(N)nc2N)cc(OCCCCCC(=O)O)c1OC | 231 nM |  |
